# Measurements taken from article PMC8523698, “Preclinical characterization of an intravenous coronavirus 3CL protease inhibitor for the potential treatment of COVID19” (Nature Communications, 2021).
# Several values for one entry are separate records, joined by “and”; a condition that tells them apart may be missing. Equal entries are not always repeated. Where two headings read alike, the source gives them in different places.
# Experiments:
# CYP3A4/5 [1] = assay: Time-dependent inhibition of CYP enzymes in human liver microsomes
# OATP1B3 = target: T1, OATP1B3 (Homo sapiens, UniProt Q9NPD5); assay: Transporter inhibition using transfected HEK293 cells
# T1 sequence (Q9NPD5 1-702): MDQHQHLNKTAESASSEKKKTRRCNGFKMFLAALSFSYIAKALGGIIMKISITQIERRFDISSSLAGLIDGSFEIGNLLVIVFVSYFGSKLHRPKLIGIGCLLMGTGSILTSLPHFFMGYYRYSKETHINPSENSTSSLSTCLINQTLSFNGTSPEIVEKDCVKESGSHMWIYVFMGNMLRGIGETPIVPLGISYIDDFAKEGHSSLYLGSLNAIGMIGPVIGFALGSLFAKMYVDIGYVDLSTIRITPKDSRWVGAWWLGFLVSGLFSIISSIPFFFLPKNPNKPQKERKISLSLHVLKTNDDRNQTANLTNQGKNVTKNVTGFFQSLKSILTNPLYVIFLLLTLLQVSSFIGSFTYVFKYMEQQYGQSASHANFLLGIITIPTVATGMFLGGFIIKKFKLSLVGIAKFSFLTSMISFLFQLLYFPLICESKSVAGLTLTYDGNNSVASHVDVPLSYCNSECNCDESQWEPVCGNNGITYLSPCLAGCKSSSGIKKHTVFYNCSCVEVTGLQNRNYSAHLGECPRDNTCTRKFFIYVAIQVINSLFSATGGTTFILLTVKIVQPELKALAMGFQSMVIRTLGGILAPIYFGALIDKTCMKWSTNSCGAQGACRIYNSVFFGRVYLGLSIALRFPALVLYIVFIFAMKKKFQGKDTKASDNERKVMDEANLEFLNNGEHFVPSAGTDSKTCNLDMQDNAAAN
# [2] = system: SARS-CoV-2 Belgium/GHB-03021/2020 strain; assay: microbe, parasite or virus in culture; format: cell-based; conditions: Severe acute respiratory syndrome coronavirus 2
# HCoV-229E = assay: Viral CPE assay in MRC-5 cells (CellTiter Glo); format: cell-based; conditions: Human coronavirus 229E
# CYP3A4/5 [3] = assay: in vitro; conditions: human, microsomes, pH 7.4, Percent of Control Activity
# [4] = system: SARS-CoV-2 Washington strain 1 (USA_WA1/2020); format: cell-based
# OATP1B1 = target: T2, OATP1B1 (Homo sapiens, UniProt Q9Y6L6); assay: Transporter inhibition using transfected HEK293 cells
# T2 sequence (Q9Y6L6 1-691): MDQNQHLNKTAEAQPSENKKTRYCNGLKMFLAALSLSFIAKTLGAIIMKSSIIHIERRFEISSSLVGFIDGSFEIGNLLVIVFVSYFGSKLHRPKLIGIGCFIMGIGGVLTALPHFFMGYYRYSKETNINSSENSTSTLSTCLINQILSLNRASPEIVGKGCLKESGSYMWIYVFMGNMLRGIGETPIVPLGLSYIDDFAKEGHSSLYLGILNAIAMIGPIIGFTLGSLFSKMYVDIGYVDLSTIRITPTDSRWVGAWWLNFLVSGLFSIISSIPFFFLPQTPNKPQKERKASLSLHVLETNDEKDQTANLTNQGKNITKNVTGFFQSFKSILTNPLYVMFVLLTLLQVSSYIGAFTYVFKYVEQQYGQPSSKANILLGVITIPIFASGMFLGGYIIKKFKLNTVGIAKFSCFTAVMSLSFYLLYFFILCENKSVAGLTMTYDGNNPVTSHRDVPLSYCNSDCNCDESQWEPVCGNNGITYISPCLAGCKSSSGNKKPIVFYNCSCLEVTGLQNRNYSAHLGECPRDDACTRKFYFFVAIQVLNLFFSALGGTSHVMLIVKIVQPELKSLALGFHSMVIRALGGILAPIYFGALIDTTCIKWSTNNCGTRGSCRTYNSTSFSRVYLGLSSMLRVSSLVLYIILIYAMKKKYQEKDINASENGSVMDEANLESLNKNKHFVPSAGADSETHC
# [5] = Plasma protein binding by equilibrium dialysis; conditions: for fraction unbound at 6 h, 5 uM / fraction unbound at 6 h: plasma
# [6] = CYP 3A4/5 (mdz), 30-Minute Preincubation
# [7] = CYP 3A4/5 (mdz), Zero-Minute Preincubation
# [8] = CYP 3A4/5 (tst), 30-Minute Preincubation
# [9] = CYP 3A4/5 (tst), Zero-Minute Preincubation
compound,measurement,setting,value
COc1cccc2[nH]c(C(=O)N[C@@H](CC(C)C)C(=O)N[C@@H](C[C@@H]3CCNC3=O)C(=O)CO)cc12 [PF-00835231],KI ± SE,CYP3A4/5 [1]; Midazolam (20 µM),163 ± 31 µM
same,KI ± SE,"CYP3A4/5 [1]; Midazolam (20 µM), listed as PF00835231",163 µM
same,KI ± SE,CYP3A4/5 [1]; Testosterone ([…]),168 ± 8 µM
same,time-dependent inhibition (TDI) signal,CYP3A4/5 [1]; pooled HLM,weak signal
same,IC50,OATP1B3,51.6 µM
same,IC50,"OATP1B3; human, HEK293 cells stably transfected with OATP1B3, pH 7.4, probe rosuvastatin (0.5 µM)",> 20 µM
same,EC90,[2],1.6 µM
same,EC50,"HCoV-229E; MRC5, MRC-5, minus efflux inhibitor, individual determinations by date",0.0806 µM
same,EC50,"HCoV-229E; MRC5, read-out: EC50 GeoMean (95% CI), efflux inhibitor CP-100356: 0",0.069 µM
same,EC50,"HCoV-229E; MRC5, read-out: EC50 GeoMean (95% CI), efflux inhibitor CP-100356: 0.5 μM",0.08 µM
same,CC50,"in vitro; African green monkey, CC50",> 100 µM
same,CC50,"in vitro; African green monkey, CC50, n=1",> 50 µM
same,CC50,"in vitro; monkey, CC50",> 50 µM
same,CC50,"in vitro; monkey, CC50, n=1",> 50 µM
same,CC50,"in vitro; monkey, CC50 GeoMean (95% CI)",> 100 µM
same,solubility at 48 h,Solubility measurement; deionized water and pH buffers,< 0.1 mg/mL
same,solubility,"Solubility measurement; standard solubilizing excipients, aqueous with cosolvent or surfactant or cyclodextrin",0.5 mg/mL
same,activity at 0.1 µM,"CYP3A4/5 [3]; CYP 3A4/5 (mdz), 0.1 µM, 30-Minute Preincubation",97.8%
same,activity at 0.1 µM,"CYP3A4/5 [3]; CYP 3A4/5 (mdz), 0.1 µM, Zero-Minute Preincubation",95.2%
same,activity at 0.214 µM,"CYP3A4/5 [3]; CYP 3A4/5 (mdz), 0.214 µM, 30-Minute Preincubation",121%
same,activity at 0.214 µM,"CYP3A4/5 [3]; CYP 3A4/5 (mdz), 0.214 µM, Zero-Minute Preincubation",98.7%
same,activity at 0.979 µM,"CYP3A4/5 [3]; CYP 3A4/5 (mdz), 0.979 µM, 30-Minute Preincubation",99.8%
same,activity at 0.979 µM,"CYP3A4/5 [3]; CYP 3A4/5 (mdz), 0.979 µM, Zero-Minute Preincubation",95.5%
same,activity at 2.09 µM,"CYP3A4/5 [3]; CYP 3A4/5 (mdz), 2.09 µM, 30-Minute Preincubation",99.7%
same,activity at 2.09 µM,"CYP3A4/5 [3]; CYP 3A4/5 (mdz), 2.09 µM, Zero-Minute Preincubation",97.6%
same,activity at 4.48 µM,CYP3A4/5 [3]; [6],101%
same,activity at 4.48 µM,CYP3A4/5 [3]; [7],110%
same,activity at 20.5 µM,CYP3A4/5 [3]; [6],88.2%
same,activity at 20.5 µM,CYP3A4/5 [3]; [7],108%
same,activity at 43.8 µM,CYP3A4/5 [3]; [6],77.3%
same,activity at 43.8 µM,CYP3A4/5 [3]; [7],101%
same,activity at 93.5 µM,CYP3A4/5 [3]; [6],64.9%
same,activity at 93.5 µM,CYP3A4/5 [3]; [7],107%
same,activity at 200 µM,CYP3A4/5 [3]; [7],104%
same,"activity at 30 min, 0.1 µM","CYP3A4/5 [3]; CYP 3A4/5 (tst), 0.1 µM, 30-Minute Preincubation",87.1%
same,activity at 0.1 µM,"CYP3A4/5 [3]; CYP 3A4/5 (tst), 0.1 µM, Zero-Minute Preincubation",103%
same,"activity at 0 min, 0.214 µM","CYP3A4/5 [3]; CYP 3A4/5 (tst), 0.214 µM, Zero-Minute Preincubation",102%
same,"activity at 30 min, 0.979 µM","CYP3A4/5 [3]; CYP 3A4/5 (tst), 0.979 µM, 30-Minute Preincubation",97.6%
same,"activity at 0 min, 2.09 µM","CYP3A4/5 [3]; CYP 3A4/5 (tst), 2.09 µM, Zero-Minute Preincubation",98.1%
same,activity at 4.48 µM,CYP3A4/5 [3]; [8],101%
same,activity at 20.5 µM,CYP3A4/5 [3]; [8],83.2%
same,activity at 20.5 µM,CYP3A4/5 [3]; [9],75.8%
same,activity at 43.8 µM,CYP3A4/5 [3]; [8],55.5%
same,activity at 43.8 µM,CYP3A4/5 [3]; [9],79.9%
same,activity at 93.5 µM,CYP3A4/5 [3]; [9],74.9%
same,activity at 200 µM,CYP3A4/5 [3]; [8],24.3%
same,hill coefficient (m),[4],3
same,IC50,OATP1B1,30.1 µM
same,IC50,"OATP1B1; human, HEK293 cells stably transfected with OATP1B1, pH 7.4, probe rosuvastatin (0.5 µM)",> 20 µM
same,Individual fraction unbound,"[5]; Monkey Cynomologous plasma, 5.0 uM, replicates Day 1-3",0.429 and 0.445 and 0.467 and 0.489 and 0.396 and 0.428 and 0.46 and 0.501 and 0.390
same,"fraction unbound at 6 h, 5 uM","[5]; cynomolgus monkey, pH 7.4, Individual fraction unbound, Monkey Cynomologous plasma, 5.0 uM, replicates Day 1-3",0.44
same,"fraction unbound at 6 h, 5 uM","[5]; monkey, pH 7.4, Fraction unbound, Geomean, Monkey plasma, 5.0 uM, n 12",0.441
same,fraction unbound at 6 h,"[5]; monkey, pH 7.4, Plasma fu, Vdss input",0.441
same,fraction unbound at 6 h,"[5]; monkey, pH 7.4, Unbound fraction fu (%CV), monkey plasma",0.441
same,"fraction unbound at 6 h, 5 uM","[5]; monkey, pH 7.4, fraction unbound Geomean, monkey plasma, 5.0 uM, n=12",0.441
